Measurements taken from patent US9469650B2, “Melampomagnolide B derivatives” (BOARD OF TRUSTEES OF THE UNIVERSITY OF ARKANSAS, priority 2013, dated 2016).

Legend:
HCT-15 = assay: panel of 60 human tumor cell lines, growth inhibition (Colon Cancer)
MDA-MB-435 = assay: panel of 60 human tumor cell lines, growth inhibition (Melanoma)
SK-MEL-2 = assay: as above
BT-549 = assay: panel of 60 human tumor cell lines, growth inhibition (Breast Cancer)
ACHN = assay: panel of 60 human tumor cell lines, growth inhibition (Renal Cancer)
TK-10 = assay: as above; details: for Percent Growth: TK-10
A549/ATCC = assay: panel of 60 human tumor cell lines, growth inhibition (Non-Small Cell Lung Cancer); details: for Percent Growth: A549/ATCC
SN12C = assay: panel of 60 human tumor cell lines, growth inhibition (Renal Cancer)
MDA-MB-231/ATCC = assay: panel of 60 human tumor cell lines, growth inhibition (Breast Cancer); details: for Percent Growth: MDA-MB-231/ATCC
HL-60(TB) = details: Log10 Concentration −4.0

C=C1C(=O)O[C@H]2[C@H]1CC/C(COC(=O)CCC(=O)NCc1ccc(Cl)nc1)=C\CC[C@@]1(C)O[C@@H]21 [JVM 96]
Percent Growth (HCT-15; HCT-15, Log10 Concentration −4.0): −88%
Percent Growth (HCT-15; HCT-15, Log10 Concentration −5.0): 16%
Percent Growth (HCT-15; HCT-15, Log10 Concentration −6.0): 8.9%
Percent Growth (HCT-15; HCT-15, Log10 Concentration −7.0): 93%
Percent Growth (HCT-15; HCT-15, Log10 Concentration −8.0): 93%
GI50 (HCT-15; Homo sapiens, HCT-15): 3.43 µM
CC50 (HCT-15; Homo sapiens, HCT-15, read-out: LC50): 43.1 µM
IC (TGI) (HCT-15; Homo sapiens, HCT-15, read-out: TGI): 14.2 µM
GI50 (MDA-MB-435; Homo sapiens, MDA-MB-435): 4.95 µM
CC50 (MDA-MB-435; Homo sapiens, MDA-MB-435, read-out: LC50): 61.9 µM
IC (TGI) (MDA-MB-435; Homo sapiens, MDA-MB-435, read-out: TGI): 20.4 µM
Percent Growth (MDA-MB-435; MDA-MB-435, Log10 Concentration −4.0): −72%
Percent Growth (MDA-MB-435; MDA-MB-435, Log10 Concentration −5.0): 32%
Percent Growth (MDA-MB-435; MDA-MB-435, Log10 Concentration −6.0): 90%
Percent Growth (MDA-MB-435; MDA-MB-435, Log10 Concentration −7.0): 89%
Percent Growth (MDA-MB-435; MDA-MB-435, Log10 Concentration −8.0): 97%
GI50 (SK-MEL-2; Homo sapiens, SK-MEL-2): 11.3 µM
CC50 (SK-MEL-2; Homo sapiens, SK-MEL-2, read-out: LC50): 64.1 µM
IC (TGI) (SK-MEL-2; Homo sapiens, SK-MEL-2, read-out: TGI): 26.9 µM
Percent Growth (SK-MEL-2; SK-MEL-2, Log10 Concentration −4.0): −76%
Percent Growth (SK-MEL-2; SK-MEL-2, Log10 Concentration −5.0): 57%
Percent Growth (SK-MEL-2; SK-MEL-2, Log10 Concentration −6.0): 97%
Percent Growth (SK-MEL-2; SK-MEL-2, Log10 Concentration −7.0): 92%
Percent Growth (SK-MEL-2; SK-MEL-2, Log10 Concentration −8.0): 90%
Percent Growth (BT-549; BT-549, Log10 Concentration −4.0): −97%
Percent Growth (BT-549; BT-549, Log10 Concentration −5.0): 32%
Percent Growth (BT-549; BT-549, Log10 Concentration −6.0): 93%
Percent Growth (BT-549; BT-549, Log10 Concentration −7.0): 139%
Percent Growth (BT-549; BT-549, Log10 Concentration −8.0): 102%
GI50 (BT-549; Homo sapiens, BT-549): 5.14 µM
CC50 (BT-549; Homo sapiens, BT-549, read-out: LC50): 43.1 µM
IC (TGI) (BT-549; Homo sapiens, BT-549, read-out: TGI): 17.8 µM
GI50 (ACHN; Homo sapiens): 4.45 µM
CC50 (ACHN; Homo sapiens, read-out: LC50): 51.9 µM
IC (TGI) (ACHN; Homo sapiens, read-out: TGI): 17.9 µM
Percent Growth (ACHN; Log10 Concentration −4.0): −81%
Percent Growth (ACHN; Log10 Concentration −5.0): 27%
Percent Growth (ACHN; Log10 Concentration −6.0): 92%
Percent Growth (ACHN; Log10 Concentration −7.0): 94%
Percent Growth (ACHN; Log10 Concentration −8.0): 98%
GI50 (TK-10; Homo sapiens, TK-10, TK-10): 3.83 µM
CC50 (TK-10; Homo sapiens, TK-10, read-out: LC50): 37.9 to 50 µM
IC (TGI) (TK-10; Homo sapiens, TK-10, read-out: TGI): 13.5 µM
Percent Growth (TK-10; Log10 Concentration −4.0): −99%
Percent Growth (TK-10; Log10 Concentration −5.0): 15%
Percent Growth (TK-10; Log10 Concentration −6.0): 99%
Percent Growth (TK-10; Log10 Concentration −7.0): 103%
Percent Growth (TK-10; Log10 Concentration −8.0): 102%
Percent Growth (A549/ATCC; Log10 Concentration −4.0): −66%
Percent Growth (A549/ATCC; Log10 Concentration −5.0): 83%
Percent Growth (A549/ATCC; Log10 Concentration −6.0): 104%
Percent Growth (A549/ATCC; Log10 Concentration −7.0): 93%
Percent Growth (A549/ATCC; Log10 Concentration −8.0): 92%
GI50 (A549/ATCC; Homo sapiens, A549): 16.7 µM
CC50 (A549/ATCC; Homo sapiens, A549, read-out: LC50): 77.8 µM
IC (TGI) (A549/ATCC; Homo sapiens, A549, read-out: TGI): 36.1 µM
GI50 (SN12C; Homo sapiens): 12.5 µM
CC50 (SN12C; Homo sapiens, read-out: LC50): > 100 µM
IC (TGI) (SN12C; Homo sapiens, read-out: TGI): 40.4 µM
Percent Growth (SN12C; Log10 Concentration −4.0): −39%
Percent Growth (SN12C; Log10 Concentration −5.0): 59%
Percent Growth (SN12C; Log10 Concentration −6.0): 95%
Percent Growth (SN12C; Log10 Concentration −7.0): 100%
Percent Growth (SN12C; Log10 Concentration −8.0): 97%
GI50 (MDA-MB-231/ATCC; Homo sapiens, MDA-MB-231): 6.19 µM
CC50 (MDA-MB-231/ATCC; Homo sapiens, MDA-MB-231, read-out: LC50): 61.5 µM
IC (TGI) (MDA-MB-231/ATCC; Homo sapiens, MDA-MB-231, read-out: TGI): 22.2 µM
Percent Growth (MDA-MB-231/ATCC; Log10 Concentration −4.0): −74%
Percent Growth (MDA-MB-231/ATCC; Log10 Concentration −5.0): 39%
Percent Growth (MDA-MB-231/ATCC; Log10 Concentration −6.0): 91%
Percent Growth (MDA-MB-231/ATCC; Log10 Concentration −7.0): 96%
Percent Growth (MDA-MB-231/ATCC; Log10 Concentration −8.0): 97%
Percent Growth (HL-60(TB)): −48%
